# Experimental data as given in patent US20220105058A1, “USE OF 3-O-SULFAMATE-16,16-DIMETHYL-D-HOMOEQUILENIN TO TREAT ONCOLOGICAL DISEASES” (priority 2018, published 2022).
# “Also recorded” adds a separate entry of the source. Marks after values point to notes of the source that are not given here.
# Columns and labels:
# [1] = system: Breast tumors (BT) in female FBV/N mice transgenic for HER-2/neu; experiment: antitumor activity in mice with HER-2/neu breast tumors; format: in vivo, FVB mice transgenic for HER-2/neu; conditions: for Total number of new tumors: end of experiment; for frequency of tumor stabilizations: end of observation; for antitumor efficacy compared with Tamoxifen: mouse, in vivo
# From the text: The age of animals at the beginning of the study was 21-41 weeks and weight was 25-30 g.
# The control groups were given the olive oil (placebo).
# TGI=(Vctrl−Vexp)/Vctrl×100(%),
# [2] = system: uterine body without horns; experiment: uterine body weight (hormonal effect) on Day 28; format: in vivo, FVB mice transgenic for HER-2/neu; conditions: for Uterine body weight: Day 28; for uterotropic activity / hormonal effect: mouse, in vivo
# Experimental: To estimate the hormonal effect of the medicament, the weight of uterine body without horns was measured on Day 28 of the observation period (Table 9).
structure (smiles),measurement,setting,value
"CC1(C)CC(=O)[C@@]2(C)CCc3c(ccc4cc(OS(N)(=O)=O)ccc34)[C@@H]2C1 [medicament, 3-O-sulfamate-16,16-dimethyl-D-homoequilenin]",TGI (average total tumor volume),"[1]; medicament 20 mg/kg, Day 21",38%
same,TGI (average tumor volume),"[1]; medicament 20 mg/kg, Day 21",25%
same,average total volume of tumors in mice (M),"[1]; medicament 20 mg/kg, Day 21",3.15** cm^3
same,average volume of tumors (M),"[1]; medicament 20 mg/kg, Day 21",0.64 cm^3
same,relative change of the average total volume to that of Day − 1 (M),"[1]; medicament 20 mg/kg, Day 21",91^aa %
same,TGI (average total tumor volume),"[1]; medicament 20 mg/kg, Day 28",40%
same,TGI (average tumor volume),"[1]; medicament 20 mg/kg, Day 28",27%
same,average total volume of tumors in mice (M),"[1]; medicament 20 mg/kg, Day 28",3.48**^a cm^3
same,average volume of tumors (M),"[1]; medicament 20 mg/kg, Day 28",0.71* cm^3
same,relative change of the average total volume to that of Day − 1 (M),"[1]; medicament 20 mg/kg, Day 28",107*^aa %
same,Total number of new tumors,[1]; medicament 20 mg/kg,23
same,frequency of tumor stabilizations,[1]; medicament 20 mg/kg,22%
same,Average volume of new tumors at the end of observation period (M),[1]; medicament 100 mg/kg,0.12* cm^3
same,"average total volume of tumors, % changes from baseline","[1]; medicament 100 mg/kg, 28 days",59%
same,"average volume of tumors, % changes from baseline","[1]; medicament 100 mg/kg, 28 days",60%
same,TGI (average total tumor volume),"[1]; medicament 100 mg/kg, Day 0",25%
same,TGI (average tumor volume),"[1]; medicament 100 mg/kg, Day 0",8%
same,average total volume of tumors in mice (M),"[1]; medicament 100 mg/kg, Day 0",1.70 cm^3
same,average volume of tumors (M),"[1]; medicament 100 mg/kg, Day 0",0.35 cm^3
same,relative change of the average total volume to that of Day − 1 (M),"[1]; medicament 100 mg/kg, Day 0",0%
same,TGI (average total tumor volume),"[1]; medicament 100 mg/kg, Day 7",41%
same,TGI (average tumor volume),"[1]; medicament 100 mg/kg, Day 7",26%
same,average total volume of tumors in mice (M),"[1]; medicament 100 mg/kg, Day 7",1.79 cm^3
same,average volume of tumors (M),"[1]; medicament 100 mg/kg, Day 7",0.37 cm^3
same,relative change of the average total volume to that of Day − 1 (M),"[1]; medicament 100 mg/kg, Day 7",1^a %
same,TGI (average total tumor volume),"[1]; medicament 100 mg/kg, Day 14",45%
same,TGI (average tumor volume),"[1]; medicament 100 mg/kg, Day 14",31%
same,average total volume of tumors in mice (M),"[1]; medicament 100 mg/kg, Day 14",2.30* cm^3
same,average volume of tumors (M),"[1]; medicament 100 mg/kg, Day 14",0.48 cm^3
same,relative change of the average total volume to that of Day − 1 (M),"[1]; medicament 100 mg/kg, Day 14",38^a %
same,TGI (average total tumor volume),"[1]; medicament 100 mg/kg, Day 21",46%
same,TGI (average tumor volume),"[1]; medicament 100 mg/kg, Day 21",33%
same,average total volume of tumors in mice (M),"[1]; medicament 100 mg/kg, Day 21",2.75** cm^3
same,average volume of tumors (M),"[1]; medicament 100 mg/kg, Day 21",0.57* cm^3
same,relative change of the average total volume to that of Day − 1 (M),"[1]; medicament 100 mg/kg, Day 21",75^aa %
same,TGI (average total tumor volume),"[1]; medicament 100 mg/kg, Day 28",53%
same,TGI (average tumor volume),"[1]; medicament 100 mg/kg, Day 28",42%
same,average total volume of tumors in mice (M),"[1]; medicament 100 mg/kg, Day 28",2.71**^a cm^3
same,average volume of tumors (M),"[1]; medicament 100 mg/kg, Day 28",0.56**^a cm^3
same,relative change of the average total volume to that of Day − 1 (M),"[1]; medicament 100 mg/kg, Day 28",69**^aa %
same,Total number of new tumors,[1]; medicament 100 mg/kg,15
same,frequency of tumor stabilizations,[1]; medicament 100 mg/kg,27%
same,frequency of tumor stabilizations,"[1]; medicament 100 mg/kg, listed as compound",27%
same,antitumor efficacy compared with Tamoxifen,[1],statistically significantly more effective
same,antitumor efficacy compared with Tamoxifen,[1]; listed as agent,inhibits the proliferation of tumours more effectively
same,Uterine body weight,"[2]; medicament 20 mg/kg, All mice",27 ± 5 mg
same,Uterine body weight,"[2]; medicament 20 mg/kg, diestrus (D-7)",19 ± 3 mg
same,Uterine body weight,"[2]; medicament 20 mg/kg, estrus (E-3)",45 ± 7 mg
same,Uterine body weight,"[2]; medicament 100 mg/kg, All mice",26 ± 6 mg
same,Uterine body weight,"[2]; medicament 100 mg/kg, diestrus (D-8)",19 ± 4 mg
same,Uterine body weight,"[2]; medicament 100 mg/kg, estrus (E-2)",50 ± 10 mg
same,uterotropic activity / hormonal effect,[2],No significant differences; also recorded: no uterotropic activity
same,uterotropic activity / hormonal effect,[2]; listed as compound,absence of uterotropic activity
